Source: PubChem BioAssay (NCI)
Several values for one entry are separate records, joined by “and”; a condition that tells them apart may be missing. Equal values may be shown once.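 48-hour exposure; five concentrations; linearly interpolated endpoints. GI50: concentration for 50% inhibition of growth. TGI denotes the concentration required for complete inhibition of growth.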

Tested on: HCT-116 colon
Assay: DTP human tumour cell line panel, 48 h

Structure (SMILES) | GI50 | TGI
COc1ccc(CN2C(=O)/C(=C\c3cc(OC)c(OC)c(OC)c3)c3ccccc32)cc1 | 1.61 µM | 3.05 µM
CCOP(=O)(OCC)C(F)(F)c1ccc(CC(NC(=O)OC(C)(C)C)C(=O)O)cc1 (configuration not stated) |  | > 10 µM
O=C(C1OC1c1ccc(Br)cc1O)C12CC3CC(CC(C3)C1)C2 (configuration not stated) |  | 30.9 µM
Cc1ccccc1OC(C)C(=O)NN1C(=O)CSC1c1ccccc1 (configuration not stated) |  | > 100 µM
c1ccc2c3[nH]c(c2c1)=Nc1ccc(cc1)-c1nc2cc(ccc2o1)N=c1[nH]c(c2ccccc12)=Nc1ccc2nc(oc2c1)-c1ccc(cc1)N=3 |  | > 100 µM
CC(C)=CCC[C@@H](C)c1c(O)c(O)c(C)c2nccnc12 |  | > 100 µM
Cc1ccc(-c2cc(-c3ccco3)c(C#N)c(=S)n2C2OC(CO)C(O)C(O)C2O)cc1 (configuration not stated) | 4.91 µM and 25.3 µM | 18.5 µM and > 100 µM
O=C(OCc1ccccc1)N1CCNCCN(C(=O)OCc2ccccc2)CCNCC1 |  | 42.9 µM
O=C(Cc1ccc(O)c(O)c1)NCc1c[nH]c2ccccc12 |  | > 100 µM
COc1nncc2[nH]c(-c3ccccc3)cc12 |  | > 100 µM
O=S(=O)(c1ccccc1)c1cccc2c1NCCC2 |  | > 100 µM
COP(=O)(OC)C1=c2c(C)noc2=C2C=COC2C1=O (configuration not stated) |  | > 100 µM
COc1cccc(C2SC(N)=Nc3c2c(C)nn3C(=O)c2ccccc2O)c1 (configuration not stated) |  | > 10 µM

Tested on: HT29 colon
Assay: DTP human tumour cell line panel, 48 h

Structure (SMILES) | TGI | GI50
CCOC(=O)c1c(CN2CCCC2)n(-c2ccccc2)c2cc(Br)c(O)cc12 | 18.2 µM | 
COc1cccc(Nc2nc(-c3cccs3)nc3cc(OC)c(OC)cc23)c1 | 48.8 µM | 
Nn1c(-c2ccccc2)n[nH]c1=O | > 100 µM | 
Nn1c(Nc2ccc(S(=O)(=O)Nc3ncccn3)cc2)nnc(/C=C/c2c(O)ccc3ccccc23)c1=O | > 100 µM | 
Cc1cc(-c2nc3ccc(F)cc3s2)ccc1NC(=O)[C@H](C)N | 8.38 µM | 
Cc1cc(Nc2ccc(S(=O)(=O)O)c3cc(S(=O)(=O)O)cc(S(=O)(=O)O)c23)c2ccccc2n1 | > 100 µM | 
Cc1cc(C)nc(NS(=O)(=O)c2ccc(NC(=O)c3ccc4nc5ccccc5c(Nc5ccc(S(N)(=O)=O)cc5)c4c3)cc2)n1 | > 100 µM | 
Nc1c(-c2ccc(Cl)c(Cl)c2)c2ccc([N+](=O)[O-])cc2c(=O)n1-c1nc2ccccc2s1 | > 34.2 µM | 
CC1(C(=O)O)CCC2(C)CCC3(C)C(=CC(=O)C4C5(C)CCC(O)C(C)(C)C5CCC43C)C2C1 (configuration not stated) | 38.7 µM | 
COC(=O)c1c(C)nc2c1cc(O)c1[nH]c(C)c(C)nc12 | > 100 µM | 
Cn1c2ccc3cc2c(=S)c2cc(ccc21)OCCOCCOCCOCCOCCOCCO3 | > 10 µM | 
O=[N+]([O-])c1cc(C=NC23CC4CC(CC(C4)C2)C3)ccc1Cl | 39.8 µM | 
COc1cc(S(=O)(=O)Nc2nc(-c3ccc(N4C(=O)C(CC(=O)O)SC4c4cccs4)cc3)cs2)ccc1Cl (configuration not stated) | > 100 µM | 
CCCCCC1=CC(=O)C1(Cl)Cl | 36.7 µM | 
CC(=O)N(C(=O)CC(=O)N1N=C(c2ccccc2)C(N=Nc2ccccc2[N+](=O)[O-])C1=O)c1ccc(Cl)cc1 (configuration not stated) | > 10 µM | 
CC(=O)N1C(C(=O)NC2CCCCC2)CSC1c1ccccc1 (configuration not stated) | > 100 µM | 
Oc1ccccc1CNCc1nc2ccccc2[nH]1 | > 100 µM | 
COc1ncc(/C=C2\OC(=O)c3ccccc32)c(OC)n1 | > 100 µM | 

Structure (SMILES) | TGI | GI50
CC1(C)O[C@H]2OC(CO[Si](C)(C)C(C)(C)C)C(N=[N+]=[N-])[C@H]2O1 (some centres not stated) | 25.5 µM | 
C[C@]12CCC3C4=C(CCC3C1CCC2=O)C(=O)[C@H]1O[C@H]1C4=O (some centres not stated) | 3.45 µM | 
O=[N+]([O-])c1ccc(Cl)cc1N/N=C/c1ccnc2ccccc12 | > 100 µM | 
Oc1[nH]c2ccccc2c1N=Nc1nc(-c2ccc(Br)cc2)cs1 | 32.9 µM | 
CC(C)c1cc2c(cc1S(=O)(=O)O)[C@@]1(C)CCC[C@@](C)(C(=O)O)C1CC2 (some centres not stated) | > 100 µM | 
N#CC(Cc1ccccc1)N(CCC1=CCCCC1)C(c1ccccc1)c1ccccc1 (configuration not stated) | > 100 µM | 
C/C(=C\CBr)CCC(Br)C(C)(C)Br (configuration not stated) | > 100 µM | 
C#CCn1c(=O)c2ccccc2n(CC#C)c1=O | > 10 µM | 
O=C1CCC2(c3ccc(Cl)cc3)Nc3ccncc3N12 (configuration not stated) | > 10 µM | 
Oc1ccc(Cc2cc(Cc3ccc(O)cc3)cc(Cc3ccc(O)cc3)c2)cc1 | > 50 µM | 
[N-]=[N+]=NC(c1ccccc1)(c1ccccc1)c1ccccc1 | 32.6 µM | 
C[C@]12CC[C@H](O)CC1=CC[C@@H]1[C@@H]2CC[C@]2(C)C(=N/N)/C(=N\O)C[C@@H]12 | > 100 µM | 
COc1ccc(CN2C(=O)/C(=C\c3cc(OC)c(OC)c(OC)c3)c3ccccc32)cc1 | 3.79 µM | 1.68 µM
CCOP(=O)(OCC)C(F)(F)c1ccc(CC(NC(=O)OC(C)(C)C)C(=O)O)cc1 (configuration not stated) | > 10 µM | 
O=C(C1OC1c1ccc(Br)cc1O)C12CC3CC(CC(C3)C1)C2 (configuration not stated) | > 100 µM | 
Cc1ccccc1OC(C)C(=O)NN1C(=O)CSC1c1ccccc1 (configuration not stated) | > 100 µM | 
c1ccc2c3[nH]c(c2c1)=Nc1ccc(cc1)-c1nc2cc(ccc2o1)N=c1[nH]c(c2ccccc12)=Nc1ccc2nc(oc2c1)-c1ccc(cc1)N=3 | > 100 µM | 
CC(C)=CCC[C@@H](C)c1c(O)c(O)c(C)c2nccnc12 | > 65.6 µM | 
